How the values were obtained:
[1] = system: cultured human mast cells (CHMC); test: CHMC low cell density IgE activation: tryptase assay; format: cell-based; settings: low cell density CHMC, IgE activation, tryptase
How it was run: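 Low-density CHMC, 1000-1500 cells/well in MT; 1 hr 37 °C; anti-IgE challenge 30 min 37 °C; supernatant tryptase via fluorogenic substrate, 30 min RT.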

[2] = system: cultured human mast cells (CHMC); test: CHMC low cell density ionomycin activation: tryptase assay; format: cell-based; settings: low cell density CHMC, tryptase, 3 pt, read-out: LD Tryptase, CHMC, Iono, 3 pt
[3] = Homo sapiens, Mast cell, 3 pt, read-out: LD Tryptase, CHMC, IgE, 3 pt
[4] = 3 pt, read-out: LD Tryptase, CHMC, IgE, 3 pt
[5] = Homo sapiens, Mast cell, 8 pt, read-out: LD Tryptase, CHMC, IgE, 8 pt

IC50 [1, 3] [µM] | IC50 ([2]; Homo sapiens, Mast cell) [µM] | IC50 [1, 5] [µM] | Structure (SMILES) | IC50 [1, 4] [µM] | IC50 [2] [µM] | IC50 ([1]; 8 pt, read-out: LD Tryptase, CHMC, IgE, 8 pt) [µM]
< 10 | > 10 |  | CN1CCN(c2ccc(Nc3ncc(F)c(NC4CCCC4)n3)cc2)CC1 [Compound 1157, N4-Cyclopentyl-5-fluoro-N2-[4-(4-methylpiperazino)phenyl]-2,4-pyrimidinediamine] |  |  | 
< 10 | > 10 |  | Fc1cnc(Nc2cccc(N3CCOCC3)c2)nc1NC1CCCC1 [Compound 1158, N4-Cyclopentyl-5-fluoro-N2-(3-morpholinophenyl)-2,4-pyrimidinediamine] |  |  | 
< 10 | > 10 |  | CC(=O)N1CCN(c2cccc(Nc3ncc(F)c(NC4CCCC4)n3)c2)CC1 [Compound 1159, N2-[3-(4-Acetylpiperazino)phenyl]-N4-cyclopentyl-5-fluoro-2,4-pyrimidinediamine] |  |  | 
< 10 | > 10 |  | CN1CCN(c2cccc(Nc3ncc(F)c(NC4CCCC4)n3)c2)CC1 [Compound 1160] |  |  | 
< 10 | > 10 |  | CCOC(=O)N1CCN(c2cccc(Nc3ncc(F)c(NC4CCCC4)n3)c2)CC1 [Compound 1161] |  |  | 
< 10 | > 10 |  | Fc1cnc(Nc2ccc(N3CCOCC3)cc2)nc1NC1CCCCC1 [Compound 1162, N4-Cyclohexyl-5-fluoro-N2-(4-morpholinophenyl)-2,4-pyrimidinediamine] |  |  | 
< 10 | > 10 |  | CC(=O)N1CCN(c2ccc(Nc3ncc(F)c(NC4CCCCC4)n3)cc2)CC1 [Compound 1163, N2-[4-(4-Acetylpiperazino)phenyl]-N4-cyclohexyl-5-fluoro-2,4-pyrimidinediamine] |  |  | 
< 10 | < 10 |  | CCOC(=O)N1CCN(c2ccc(Nc3ncc(F)c(NC4CCCCC4)n3)cc2)CC1 [Compound 1165, N4-Cyclohexyl-N2-[4-(4-ethoxycarbonylpiperazino)phenyl]-5-fluoro-2,4-pyrimidinediamine] |  |  | 
< 10 | > 10 |  | Fc1cnc(Nc2cccc(N3CCOCC3)c2)nc1NC1CCCCC1 [Compound 1166, N4-Cyclohexyl-5-fluoro-N2-(3-morpholinophenyl)-2,4-pyrimidinediamine] |  |  | 
< 10 | > 10 |  | CC(=O)N1CCN(c2cccc(Nc3ncc(F)c(NC4CCCCC4)n3)c2)CC1 [Compound 1167, N2-[3-(4-Acetylpiperazino)phenyl]-N4-cyclohexyl-5-fluoro-2,4-pyrimidinediamine] |  |  | 
< 10 | > 10 |  | CN1CCN(c2cccc(Nc3ncc(F)c(NC4CCCCC4)n3)c2)CC1 [Compound 1168, N4-Cyclohexyl-5-fluoro-N2-[3-(4-methylpiperazino)phenyl]-2,4-pyrimidinediamine] |  |  | 
< 10 | > 10 |  | CCOC(=O)N1CCN(c2cccc(Nc3ncc(F)c(NC4CCCCC4)n3)c2)CC1 [Compound 1169, N4-Cyclohexyl-N2-[3-(4-ethoxycarbonylpiperazino)phenyl]-5-fluoro-2,4-pyrimidinediamine] |  |  | 
< 10 | > 10 |  | O=C(Nc1ccc(Nc2ncc(F)c(NC3CCCC3)n2)cc1)c1ccccc1 [Compound 1170, N2-(4-Benzamidophenyl)-N4-cyclopentyl-5-fluoro-2,4-pyrimidinediamine] |  |  | 
< 10 | > 10 |  | COc1cc(C(N)=O)c(Nc2ncc(F)c(NC3CCCC3)n2)cc1OCc1ccccc1 [Compound 1171, N2-(2-Aminocarbonyl-5-benzoxy-4-methoxyphenyl)-N4-cyclopentyl-5-fluoro-2,4-pyrimidinediamine] |  |  | 
< 10 | > 10 |  | CC(=O)N(C)c1ccc(Nc2ncc(F)c(NC3CCCC3)n2)cc1 [Compound 1172, N2-[4-(N-Acetyl-N-methylamino)phenyl]-N4-cyclopentyl-5-fluoro-2,4-pyrimidinediamine] |  |  | 
> 10 | > 10 |  | Fc1cnc(Nc2cccc(NC3=NCCN3)c2)nc1NC1CCCC1 [Compound 1173, N4-Cyclopentyl-5-fluoro-N2-[3-(N-2-imidazolin-2-yl)aminophenyl]-2,4-pyrimidinediamine] |  |  | 
< 10 | > 10 |  | COc1cc(C(N)=O)c(Nc2ncc(F)c(NC3CCCCC3)n2)cc1OCc1ccccc1 [Compound 1175, N2-(2-Aminocarbonyl-5-benzoxy-4-methoxyphenyl)-N4-cyclohexyl-5-fluoro-2,4-pyrimidinediamine] |  |  | 
< 10 | > 10 |  | CC(=O)N(C)c1ccc(Nc2ncc(F)c(NC3CCCCC3)n2)cc1 [Compound 1176, N2-[4-(N-Acetyl-N-methylamino)phenyl]-N4-cyclohexyl-5-fluoro-2,4-pyrimidinediamine] |  |  | 
> 10 | > 10 |  | Fc1cnc(Nc2cccc(NC3=NCCN3)c2)nc1NC1CCCCC1 [Compound 1177] |  |  | 

IC50 [1, 3] [µM] | IC50 ([2]; Homo sapiens, Mast cell) [µM] | IC50 [1, 5] [µM] | Structure (SMILES) | IC50 [1, 4] [µM] | IC50 [2] [µM] | IC50 ([1]; 8 pt, read-out: LD Tryptase, CHMC, IgE, 8 pt) [µM]
> 10 | > 10 |  | Fc1cnc(Nc2cccc(-c3ncco3)c2)nc1Nc1cccc(-c2ncco2)c1 [Compound 1178, N2,N4-Bis[3-(oxazol-2-yl)phenyl]-5-fluoro-2,4-pyrimidinediamine] |  |  | 
< 10 | > 10 |  | CN(c1nc(Nc2cccc(-c3ncco3)c2)ncc1F)C1CCC1 [Compound 1179, N4-Cyclobutyl-5-fluoro-N4-methyl-N2-[3-(oxazol-2-yl)phenyl]-2,4-pyrimidinediamine] |  |  | 
< 10 | > 10 |  | Fc1cnc(Nc2ccc(N3CCOCC3)cc2)nc1N[C@H]1CCN(Cc2ccccc2)C1 [Compound 1180, (S)-N4-(1 -Benzylpyrrolidin-3-yl)-5-fluoro-N2-(4-morpholinophenyl)-2,4-pyrimidinediamine] |  |  | 
< 10 | > 10 |  | CC(=O)N1CCN(c2ccc(Nc3ncc(F)c(N[C@H]4CCN(Cc5ccccc5)C4)n3)cc2)CC1 [Compound 1181, (S)-N2-[4-(4-Acetylpiperazino)phenyl]-N4-(1-benzylpyrrolidin-3-yl)-5-fluoro-2,4-pyrimidinediamine] |  |  | 
> 10 | > 10 |  | CN1CCN(c2ccc(Nc3ncc(F)c(N[C@H]4CCN(Cc5ccccc5)C4)n3)cc2)CC1 [Compound 1182] |  |  | 
< 10 | > 10 |  | CCOC(=O)N1CCN(c2ccc(Nc3ncc(F)c(N[C@H]4CCN(Cc5ccccc5)C4)n3)cc2)CC1 [Compound 1183, (S)-N4-(1-Benzylpyrrolidin-3-yl)-N2-[4-(4-ethoxycarbonylpiperazino)phenyl]-5-fluoro-2,4-pyrimidinediamine] |  |  | 
< 10 | > 10 |  | Fc1cnc(Nc2cccc(N3CCOCC3)c2)nc1N[C@H]1CCN(Cc2ccccc2)C1 [Compound 1184] |  |  | 
 |  |  | CC(=O)N1CCN(c2cccc(Nc3ncc(F)c(N[C@H]4CCN(Cc5ccccc5)C4)n3)c2)CC1 [Compound 1185, (S)-N2-[3-(4-Acetylpiperazino)phenyl]-N4-(benzylpyrrolidin-3-yl)-5-fluoro-2,4-pyrimidinediamine] | < 10 | > 10 | 
< 10 | > 10 |  | CN1CCN(c2cccc(Nc3ncc(F)c(N[C@H]4CCN(Cc5ccccc5)C4)n3)c2)CC1 [Compound 1186] |  |  | 
< 10 | > 10 |  | CCOC(=O)N1CCN(c2cccc(Nc3ncc(F)c(N[C@H]4CCN(Cc5ccccc5)C4)n3)c2)CC1 [Compound 1187, (S)-N4-(1-Benzylpyrrolidin-3-yl)-N2-[3-(4-ethoxycarbonylpiperazino)phenyl]-5-fluoro-2,4-pyrimidinediamine] |  |  | 
< 10 | > 10 | < 10 | CC1(C)Oc2ccc(Nc3nc(Nc4cccc(-c5ncco5)c4)ncc3F)cc2NC1=O [Compound 1281] |  |  | 
< 10 | > 10 | < 10 | C[C@@H]1Oc2ccc(Nc3nc(Nc4cccc(-c5ncco5)c4)ncc3F)cc2NC1=O [Compound 1282] |  |  | 
< 10 | > 10 | < 10 | C[C@H]1Oc2ccc(Nc3nc(Nc4cccc(-c5ncco5)c4)ncc3F)cc2NC1=O [Compound 1283] |  |  | 
< 10 | > 10 | < 10 | O=C1Nc2cc(Nc3nc(Nc4cccc(-c5ncco5)c4)ncc3F)ccc2OC1(F)F [Compound 1284] |  |  | 
< 10 | > 10 | < 10 | NC1CCOc2ccc(Nc3nc(Nc4cccc(-c5ncco5)c4)ncc3F)cc21 (centres unmarked) [Compound 1285] |  |  | 
 |  |  | CC(C)(C)OC(=O)NC1CCOc2ccc(Nc3nc(Nc4cccc(-c5cnco5)c4)ncc3F)cc21 (centres unmarked) [Compound 1287, N4-(4-N-tert-Butoxycarbonylamino-3,4-dihydro-2H-1-benzopyran-6-yl)-5-fluoro-N2-[3-(oxazol-5-yl)phenyl]-2,4-pyrimidinediamine] | < 10 | > 10 | 
 |  |  | CC(C)(C)OC(=O)NC1CCOc2ccc(Nc3nc(Nc4ccc(-c5cnco5)cc4)ncc3F)cc21 (centres unmarked) [Compound 1288, N4-(4-N-tert-Butoxycarbonylamino-3,4-dihydro-2H-1-benzopyran-6-yl)-5-fluoro-N2-[4-(oxazol-5-yl)phenyl]-2,4-pyrimidinediamine] | < 10 | < 10 | < 10
 |  |  | CC(C)(C)OC(=O)NC1CCOc2ccc(Nc3nc(Nc4ccc(-c5ncco5)cc4)ncc3F)cc21 (centres unmarked) [Compound 1289, N4-(4-N-tert-Butoxycarbonylamino-3,4-dihydro-2H-1-benzopyran-6-yl)-5-fluoro-N2-[4-(oxazol-2-yl)phenyl]-2,4-pyrimidinediamine] | < 10 | < 10 | 
< 10 | > 10 | < 10 | OC1CCOc2ccc(Nc3nc(Nc4ccc(-c5ncco5)cc4)ncc3F)cc21 (centres unmarked) [Compound 1291, 5-Fluoro-N4-(4-hydroxy-3,4-dihydro-2H-1-benzopyran-6-yl)-N2-[4-(oxazol-2-yl)phenyl]-2,4-pyrimidinediamine] |  |  | 

From patent publication US20220073536A1 (Rigel Pharmaceuticals, Inc., priority 2003, published 2022)
